Data reported in ChEMBL document CHEMBL1125350, “L-thymidine is phosphorylated by herpes simplex virus type 1 thymidine kinase and inhibits viral growth” (J Med Chem, 1992).

System: Thymidine kinase (Human herpesvirus 1)
Details: Human alphaherpesvirus 1

ID50: > 1000 µM
SMILES: Nc1ncnc2c1ncn2[C@H]1C[C@H](O)[C@@H](CO)O1
